Columns and labels:
HLA-A*0201 molecule = HLA-A*0201 molecule (Homo sapiens, UniProt P04439, D140Y/D185E/D98H/E176V/E277Q/G131W/G231S/I119V/I121R/I166T/I218V/L300P/L318F/N151K/N90K/P208A/P217A/Q86G/Q94H/R138H/R169H/T345S); assay: T2-cell-peptide binding test (affinity of peptide for HLA-A*0201); conditions: various peptide concentrations, 3 μg/mL human β2m, serum-free RPMI 1640, 37°C, 16 h, flow cytometry, three replicates, repeated three times
Method: The affinity of peptides for HLA-A*0201 was measured as described previously. Briefly, T2 cells were incubated with various concentrations of each peptide and 3 μg/mL human β2m in serum-free RPMI 1640 medium at 37°C for 16 h. Then, the cells were washed and stained with antiHLA-A2 mAb and FITC-labeled goat anti-mouse IgG. The expression of HLA-A*0201 on T2 cells was determined with FACS Calibur flow cytometer (Becton Dickinson, USA). For each peptide concentration, the percent mean fluorescence index (% MFI) increase of HLA-A*0201 molecule was calculated as follows: % MFI increase = [(MFI with the given peptide − MFI without peptide)/(MFI without peptide)] × 100.
Figure 1 Binding affinity of peptides for HLA-A*0201 molecule. T2 cells were incubated with indicated concentrations of the peptides in serum-free RPMI 1640 medium supplied with 3 μg/mL human β2m at 37°C for 16 h. And then the cells were stained with anti-HLA-A2 mAb and FITC-labeled goat antimouse IgG. The expression of HLA-A*0201 on T2 cells was determined with FACS Calibur flow cytometer. The peptides HBcAg18–27 and OVA257–264 were taken as positive control and negative control, respectively. Each sample was measured in three replicates and the experiment was repeated three times.

LB1751-MEL cells [1] = assay: Cytotoxicity (LDH release) of peptide-stimulated human PBMCs against LB1751-MEL; assay type: cell-based; conditions: PBMCs of healthy HLA-A*0201 donors, E/T 50/1, 25/1, 12.5/1, 4 h
Method: PBMCs were isolated from the buffy coat of heparinized whole blood samples of healthy HLA-A*0201 donors by density gradient centrifugation on the Ficoll-Paque PREMIUM (GE Healthcare Bio-Sciences AB, Uppsala, Sweden). The effector lymphocytes and dendritic cells (DCs) were prepared by our published method. All donors signed written, informed consent to provide whole blood samples used in the study. Approval of the study was obtained from the relevant ethical committees and was in accordance with the Declaration of Helsinki.
(§1) Three to five days after the final stimulation, the cytotoxic activity of the effector cells was evaluated by a lactate dehydrogenase release assay using Cytotox 96 Non-Radioactive Cytotoxicity Assay kit (Promega, USA). In brief, 1×10^4 target cells (LB1751-MEL, MCF-7 or MCF-7A4) in 50 μL RPMI 1640 containing 5% fetal calf serum (FCS) was placed in the wells of a 96-well round-bottom plate, then 50 μL of various concentrations of effector cells was added at different effector to target (E/T) ratios (50/1, 25/1, and 12.5/1). After 4 h incubation at 37°C, the supernatant was collected to assay lactate dehydrogenase (LDH) release by OD490 measurement according to the manufacturer's instructions. Experiments were performed in triplicates and the percentage of lysis was calculated as % Lysis = [(experimental LDH release − effector spontaneous LDH release − target spontaneous LDH release)/(target maximum LDH release − target spontaneous LDH release)] × 100.
Figure 2 Induction of peptide-specific CTLs from human PBMCs. PBMCs from healthy HLA-A*0201 donors were first stimulated with peptide-pulsed autologous DCs and then restimulated with peptide-pulsed autologous PBMCs. After three to five days of the final stimulation, the stimulated PBMCs were used as effector cells to detect their cytotoxic activity against tumor cells at the indicated E/T ratios in a cytotoxicity assay. The irrelevant peptide HBcAg18–27 was taken as negative control. Each sample was measured in three replicates and the experiment was repeated three times. […] (c) P1- and P3-stimulated PBMCs mediated lysis of MCF-7A4 cells. (d) P1- and P3-stimulated PBMCs mediated lysis of MCF-7 cells.

[2] = test system: peptide/HLA-A*0201 complex; assay: Peptide/HLA-A*0201 complex stability on T2 cells; assay type: binding, human; conditions: for % MFI increase at indicated time point (h): 0 / DC50 (half-time of the peptide/HLA-A*0201 complex): T2 cells, 37°C; for % MFI increase at indicated time point (h): 0: 100 μM peptide overnight, 100 ng/mL human β2m, Brefeldin A 10 μg/mL 1 h, then 0 h at 37°C, anti-HLA-A2 mAb staining; for DC50 (half-time of the peptide/HLA-A*0201 complex): 100 μM peptide, time points 0-8 h; for % MFI increase at indicated time point (h): 2 / % MFI increase at indicated time point (h): 4 / % MFI increase at indicated time point (h): 6 / % MFI increase at indicated time point (h): 8: as at 0 h; for % MFI increase at indicated time point (h): 2: then 2 h at 37°C after Brefeldin A; for % MFI increase at indicated time point (h): 4: then 4 h at 37°C after Brefeldin A; for % MFI increase at indicated time point (h): 6: then 6 h at 37°C after Brefeldin A; for % MFI increase at indicated time point (h): 8: then 8 h at 37°C after Brefeldin A
Method: As previously described, T2 cells (10^6/mL) were incubated overnight with 100 μM of each peptide in serum-free RPMI 1640 medium supplemented with 100 ng/mL human β2m at 37°C. Then, they were washed to remove free peptides and incubated with 10 μg/mL of Brefeldin A (Sigma-Aldrich, USA) for 1 h to block newly synthesized HLA-A*0201 molecules to be expressed on cell surface, washed and incubated at 37°C for 0, 2, 4, 6, or 8 h. Subsequently, the cells were stained with the anti-HLA-A2 mAb to evaluate the expression of HLA-A*0201 molecules.

LB1751-MEL cells [3] = assay: In vivo induction of peptide-specific CTLs in HLA-A*0201/K^b transgenic mice; conditions: 100 μg peptide in IFA once, splenocytes after 10 days, restimulated in vitro 5 days with peptide and rmIL-2; LDH release
Method: as §1
HLA-A*0201/K^b mice were immunized with 100 μg of various peptides prepared in IFA or IFA emulsion without peptide as a control. After 10 days, mice were sacrificed and splenocytes were cultured for 5 days with 10 units/mL recombinant murine interleukin-2 (rmIL-2) and […]. And then, effector cells were counted and tested for cytotoxic activity in a cytotoxicity assay.
Figure 3 In vivo induction of peptide-specific CTLs. […]

MCF-7A4 cells = assay: Cytotoxicity (LDH release) of peptide-stimulated human PBMCs against MCF-7A4; assay type: cell-based; conditions: 4 h
Source text: To establish a cell line expressing both HLA-A*0201 and MAGE-A4, MCF-7 cells were transfected with plasmid pCI-MAGEA4 using Lipofectamine 2000 (Invitrogen, USA) and then selected with G418. The expression of MAGE-A4 in the established cell line (designated MCF-7A4) was confirmed by reverse transcription-PCR and western blotting.
PBMCs were isolated from the buffy coat of heparinized whole blood samples of healthy HLA-A*0201 donors by density gradient centrifugation on the Ficoll-Paque PREMIUM (GE Healthcare Bio-Sciences AB, Uppsala, Sweden). The effector lymphocytes and dendritic cells (DCs) were prepared by our published method. All donors signed written, informed consent to provide whole blood samples used in the study. […]
Three to five days after the final stimulation, the cytotoxic activity of the effector cells was evaluated by a lactate dehydrogenase release assay using Cytotox 96 Non-Radioactive Cytotoxicity Assay kit (Promega, USA). […] Experiments were performed in triplicates and the percentage of lysis was calculated as % Lysis = [(experimental LDH release − effector spontaneous LDH release − target spontaneous LDH release)/(target maximum LDH release − target spontaneous LDH release)] × 100.
Figure 2 Induction of peptide-specific CTLs from human PBMCs. […] Each sample was measured in three replicates and the experiment was repeated three times. […]

Substance	Binding affinity for HLA-A*0201 molecule (increase of HLA-A*0201 expression on T2 cells) (HLA-A*0201 molecule)	Lysis of LB1751-MEL target cells by peptide-stimulated PBMCs (LB1751-MEL cells [1])	% MFI increase at indicated time point (h): 0 [2]	DC50 (half-time of the peptide/HLA-A*0201 complex) [2]	% MFI increase at indicated time point (h): 2 [2]	% MFI increase at indicated time point (h): 4 [2]	% MFI increase at indicated time point (h): 6 [2]	% MFI increase at indicated time point (h): 8 [2]	Lysis of LB1751-MEL target cells by splenocytes of peptide-inoculated mice (LB1751-MEL cells [3])	Lysis of MCF-7A4 cells (HLA-A*0201 and MAGE-A4 expressing) by peptide-primed effector cells (MCF-7A4 cells)
ALLEEEEGV [Peptide P2]	lower affinity	could not lyse	170.07%	2 h	84.13%	57.09%	42.34%	31.19%	–	–
ALPTTISFT [Peptide P4]	lowest affinity	could not lyse	98.80%	2 h	48.73%	30.79%	21.01%	18.52%	–	–
FLWGPRALA [Peptide P3]	highest affinity	could significantly lyse	285.66%	8 h	230.85%	192.71%	170.05%	150.56%	could lyse	could also lyse
KVLEHVVRV [Peptide P1]	lowest affinity	could significantly lyse	126.16%	4 to 6 h	95.74%	74.98%	60.29%	49.07%	could lyse	could also lyse
OVA257–264: control peptide, negative control in HLA-A*0201 binding test (ESIINFEK; UniProt P01012 257-264, looked up, fragment) [reference compound]	did not increase	–	–	–	–	–	–	–	–	–

Reference: article PMC3042617, “Identification of Two Novel HLA-A*0201-Restricted CTL Epitopes Derived from MAGE-A4” (Clinical and Developmental Immunology, 2011)
